The text below walks through data of patent US20080176906A1, “Substituted Pyrrole Derivative” (Takeda Pharmaceutical Company Limited, priority 2004, published 2008).

For assay [1], the system named is human prostate cancer cell LNCaP-FGC. Kind of assay: Prostate specific antigen (PSA) production inhibition in prostate cancer cell. The following applies: 72 h, 1 μM compound, testosterone 1 ng/mL, three days, PSA in culture supernatant by ELISA, testosterone non-added group 100%, testosterone-added group 0%, read-out: PSA production Inhibitory rate (%) at 1 μM. It counts as cell-based. Here is the method: A human prostate cancer cell LNCaP-FGC was inoculated on a 96-well plate at 5000 cells/100 μL/well and, on the next day, testosterone having the final concentration of 1 ng/mL and 1 μM of a compound were added. Three days after addition, the PSA concentration in the culture supernatant was measured by ELISA, and a PSA production inhibition rate was calculated, letting the rate of a testosterone non-added group to be 100%, and letting the rate of a testosterone-added group to be 0%.

In a further assay the test system is mouse prostate. Kind of assay: Test of reduction in weight of mouse prostate. In kind it is in vivo. The following applies: orally 50 mg/kg/day for 7 days, 8 week old male mouse; drug non-addition 0%, castration 100%. An excerpt:
A rate of reduction in a prostate weight is shown in Table 5, letting at drug non-addition to be 0%, and letting at castration to be 100%.

In assay [2] the target is T1, wild-type androgen receptor (AR) (Homo sapiens, UniProt P10275).
T1 sequence (P10275 1-920): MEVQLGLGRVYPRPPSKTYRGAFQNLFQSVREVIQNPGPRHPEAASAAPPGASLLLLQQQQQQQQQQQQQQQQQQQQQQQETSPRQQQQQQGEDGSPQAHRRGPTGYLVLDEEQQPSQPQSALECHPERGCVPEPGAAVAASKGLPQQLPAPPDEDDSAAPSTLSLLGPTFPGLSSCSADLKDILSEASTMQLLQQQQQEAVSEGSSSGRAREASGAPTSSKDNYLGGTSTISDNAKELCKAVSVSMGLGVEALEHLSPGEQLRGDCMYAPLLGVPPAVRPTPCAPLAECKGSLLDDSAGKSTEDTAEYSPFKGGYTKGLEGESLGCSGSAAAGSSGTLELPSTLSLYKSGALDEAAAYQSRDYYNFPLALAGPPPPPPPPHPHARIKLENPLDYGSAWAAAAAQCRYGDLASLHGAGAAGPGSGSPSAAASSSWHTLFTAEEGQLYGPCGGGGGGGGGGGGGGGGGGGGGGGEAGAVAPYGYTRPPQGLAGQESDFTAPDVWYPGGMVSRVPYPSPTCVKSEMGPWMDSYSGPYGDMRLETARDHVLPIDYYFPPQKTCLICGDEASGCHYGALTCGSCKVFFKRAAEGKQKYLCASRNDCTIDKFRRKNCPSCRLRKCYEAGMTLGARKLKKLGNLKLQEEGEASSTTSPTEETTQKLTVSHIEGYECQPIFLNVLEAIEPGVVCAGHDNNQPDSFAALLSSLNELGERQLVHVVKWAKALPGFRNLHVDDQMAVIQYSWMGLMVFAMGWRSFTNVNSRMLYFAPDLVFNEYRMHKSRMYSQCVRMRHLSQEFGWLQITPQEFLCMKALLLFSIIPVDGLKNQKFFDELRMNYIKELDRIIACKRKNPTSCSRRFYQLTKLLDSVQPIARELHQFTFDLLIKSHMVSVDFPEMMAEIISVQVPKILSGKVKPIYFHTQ
Kind of assay: AR binding inhibitory test (wild type). The note with it: 1 μM compound, 3 nM miboleron, 4° C. for 3 hours, dextran/charcoal B/F separation; read-out: Inhibitory rate (%) at 1 μM, Wild type. As for the experimental part:
3 nM miboleron and 1 μM of a compound was added to a solution containing a wild-type androgen receptor (AR) or an androgen receptor (AR) having a LNCaP type mutation, this was incubated at 4° C. for 3 hours, and B(Bound)/F(Free) separation was performed by a dextran/charcoal method. A label count of B was measured, and an inhibition rate of the compound was calculated.

The target in the next assay is T2, mutated AR (W741C) (Homo sapiens, UniProt P10275, W742C).
T2 construct: expressed in transfected cells; host or cells: Cos-7
T2 sequence (P10275 1-920 W742C): T1 sequence (P10275 1-920) with W742C
The experiment in a line: AR transcription inhibition test (luciferase reporter in Cos-7). The following applies: 0.1 μM compound, DHT 0.04 μM, 24 hours, luciferase activity, relative to a control. It counts as cell-based. As for the experimental part:
5,000,000 Cells of Cos-7 was inoculated on a flask, and cultured in a culturing solution (DMEM+10% Dextran Charcoal (DCC)-Fetal Bovine Serum (FBS)+2 mM glutamine) for 24 hours, and a vector DNA in which mutated AR (W741C) had been inserted, and a vector DNA in which a luciferase gene had been connected downstream of an androgen-responsive promoter were transfected by a liposome method. After two hours, the medium was exchanged, the cells were cultured for 3 hours, DHT (dihydrotestosterone) having the final concentration of 0.04 μM and an assessment compound having the final concentration of 0.1 μM were added, and the cells were cultured for 24 hours, and luciferase activity was measured to investigate AR transcription inhibition activity of the assessment compound.

Residue numbers refer to the chain shown, from its start.

Regarding `Cc1c(C#N)c(-c2ccc(C#N)cc2)c(C)n1Cc1cnc(Cl)c(C(O)C(F)(F)F)c1` (stereo not drawn) [Example 38, 1-{[6-Chloro-5-(2,2,2-trifluoro-1-hydroxyethyl)pyridin-3-yl]methyl}-4-(4-cyanophenyl)-2,5-dimethyl-1H-pyrrole-3-carbonitrile], the inhibition at 1 µM in assay [1] was determined as 94%. Further, the “Reduction rate (%) of prostate weight” value in the assay with mouse prostate is reported as 68%.
Take `Cc1c(C#N)c(-c2ccc(C#N)cc2)c(C)n1Cc1cnc(Cl)c(CO)c1` [Compound 1, 1-{[6-Chloro-5-(hydroxymethyl)pyridin-3-yl]methyl}-4-(4-cyanophenyl)-2,5-dimethyl-1H-pyrrole-3-carbonitrile]: the inhibition at 1 µM stood at 94% in assay [2] and 99% in assay [1]. Further, on mutated AR (W741C), the “AR transcription Inhibitory rate (%) at 0.1 μM” value was 49%. In addition, the “Reduction rate (%) of prostate weight” value in the assay with mouse prostate stood at 74%.
